Key:
Hippo signalling pathway = test: Western blotting / mRNA of Hippo related proteins in MGC-803 and SGC-7901 cells; assay type: cell-based
Description: Phosphorylation of YAP is the process of YAP inactivation. YAP protein is inactivated (phosphorylated) by Hippo cascade pathway in cells. […] We also investigated the influence of 9i on upstream signal-regulated molecules of the Hippo pathway. […] Transcription factor TEAD interacts with YAP to express downstream substrates, the level of TEAD was not changed by compound 9i (Figures 4(A,B)). Yap entering the nucleus is a key step of substrates expression. With the treatment of compound 9i, the level of YAP inside nuclear was decreased (Figure 4(C)).
Figure 4. Influence of 9i on the Hippo signalling pathway in two gastric cancer cells. Density ratios relative to its loading control protein (β-Actin/LaminB1/GAPDH) were shown on the top of each Western blotting band. (A) The levels of Hippo related proteins, cells were treated with indicated concentrations of 9i for 12 h; (B) The levels of Hippo related proteins in different hours after the treatment with 450 nM of 9i; (C) Level of YAP in the cytoplasm and nuclear, cells were treated for 12 h with 450 nM of 9i; (D) Levels of Bcl-2 and c-Myc in MGC-803 cells after the treatment with 450 nM of 9i for different hours; (E) mRNA levels of Bcl-2 and c-My in MGC-803 cells after the treatment with 450 nM of 9i 12 h. Data were presented as mean ± SD.
2 gastric cancer cells were seeded in dishes and treated with 9i or DMSO. After 48 h, MGC-803 and SGC-7901 cells were collected and then lysed. The denatured lysates of each groups were electrophoretic separated in SDS-PAGE. Proteins were then transferred onto PVDF membranes from gels. After blocking for 2 h, membranes were incubated with primary antibodies conjugation. Then, the membranes were washed and incubated with 2nd antibodies. At last, specific proteins were detected.

[1] = test system: MGC-803 and SGC-7901 cells; test: Cell cycle distribution in gastric cancer cells; assay type: cell-based; conditions: 24 h
Description: Because of the potent inhibitory activity on cell viability of compound 9i, we next explored the effects of compound 9i on cell proliferation in MGC-803 and SGC-7901 cells.
Figure 6. Gastric cancer cell proliferation inhibition inhibited by 9i. Density ratios relative to β-Actin were shown on the top of each Western blotting band. (A,B) Cell growth curves of in MGC-803 and SGC-7901 cells after the treatment with indicated concentrations of 9i for different hours; (C,D). Gastric cancer cell colony formation, cells were treated for 7 days; (E) Cell cycle distribution of MGC-803 and SGC-7901 after the treatment with indicated concentrations of 9i for 24 h; (F,G) Cell cycle related proteins in gastric cancer cells after the treatment with indicated concentrations of 9i for 24 h.

HGC-27 cells = test: MTT antiproliferative assay, HGC-27 gastric cancer cells; assay type: cell-based
Protocol: Furthermore, MGC-803 cells were more sensitive to the compounds than HCT-116, PC-3 cells MCF-7 cells. Moreover, we chose two other common gastric cancer cell lines (HGC-27 and SGC-7901) and another two normal cells GES-1 and HUEVC cells to examine for the inhibitory activity of compound 9i.
Cell lines used were cultured in humidified incubator in a humidified atmosphere of 5% CO2 and 95% air. The RPMI-1640 medium was supplemented with 10% foetal bovine serum, penicillin (100 U/ml) and streptomycin (0.1 mg/ml).
Cell lines were seeded into 96-well plates and incubated for 24 h. Then cells were treated with different concentrations of compounds. And after another 48 h, MTT reagent (20 μL per well) was added to each well and then incubated at 37 °C for 4 h. After the suspension was discarded, formazan was then dissolved with DMSO. Absorbencies of formazan solution were measured at 490 nm. The IC50 values of tested compounds were calculated by SPSS version 17.0.

tubulin = test: Tubulin polymerization, extracellular; assay type: biochemical; conditions: 3 μmol/L
Description: In this work, compound 9i was design and synthesized by SAR study of our reported tertiary amide derivatives compound 1 and compound 2. Therefore, we tested the influence of compound 9i on tubulin polymerization and AKT/mTOR and ERK […]
influence on tubulin polymerization and P38, ERK, AKT, mTOR and Wnt pathways . […]
pathway. Therefore, we here reported N-sulfonamide-quinazoline derivatives as novel anti-gastric cancer agents via activating the Hippo signaling pathway in vitro and in […]
Supporting Figure S1. A. Activity of compound 9i on tubulin polymerization . Tubulin polymerization extracellular, concentrations of Paclitaxel, Colchicine and 9i were 3 μmol/L; Activity of compound 9i on P38, ERK, AKT, mTOR and Wnt pathways, cells were incubated with […]
(1 picture or pasted object on this page, not shown here)

Structure (SMILES): COc1ccc(S(=O)(=O)N(Cc2nc(C)c3ccccc3n2)c2cc(OC)c(OC)c(OC)c2)cc1 [Compound 9i, 4-Methoxy-N-((4-methylquinazolin-2-yl)methyl)-N-(3,4,5-trimethoxyphenyl) benzene-sulfonamide]
- MST1 and SAV levels (Hippo signalling pathway; MGC-803 and SGC-7901 cells): did not show an obvious change
- level of TEAD (Hippo signalling pathway; MGC-803 and SGC-7901 cells): not changed
- level of YAP (Hippo signalling pathway; MGC-803 and SGC-7901 cells): reduced level of YAP
- p-LATS level (Hippo signalling pathway; MGC-803 and SGC-7901 cells): up-regulated
- phosphorylation of YAP (Hippo signalling pathway; MGC-803 and SGC-7901 cells, dose and time-dependent): up-regulated the phosphorylation of YAP
- Bcl-2 and c-Myc expression (Hippo signalling pathway; two gastric cancer cells, mRNA and protein): down-regulated at mRNA and protein levels
- cell cycle arrest [1]: remarkable and dose-dependent G2/M arrest
- IC50 (HGC-27 cells; Homo sapiens, HGC-27, MTT, exposure for 48 h): 458 nM
- inhibition ratio against HGC-27 cells (HGC-27 cells; high dosage group, 48 h): above 50%
- influence on tubulin polymerization (tubulin): no strong influence

Reference: paper PMC8386742, “Discovery of N-aryl sulphonamide-quinazoline derivatives as anti-gastric cancer agents in vitro and in vivo via activating the Hippo signalling pathway” (Journal of Enzyme Inhibition and Medicinal Chemistry, 2021)
